In patent publication US9884063B2, “Amido-substituted azole compounds” (Bayer Pharma Aktiengesellschaft, priority 2014, dated 2018):

Target: T1, TNKS1 (Homo sapiens, UniProt O95271)
T1 sequence (O95271 1-1327): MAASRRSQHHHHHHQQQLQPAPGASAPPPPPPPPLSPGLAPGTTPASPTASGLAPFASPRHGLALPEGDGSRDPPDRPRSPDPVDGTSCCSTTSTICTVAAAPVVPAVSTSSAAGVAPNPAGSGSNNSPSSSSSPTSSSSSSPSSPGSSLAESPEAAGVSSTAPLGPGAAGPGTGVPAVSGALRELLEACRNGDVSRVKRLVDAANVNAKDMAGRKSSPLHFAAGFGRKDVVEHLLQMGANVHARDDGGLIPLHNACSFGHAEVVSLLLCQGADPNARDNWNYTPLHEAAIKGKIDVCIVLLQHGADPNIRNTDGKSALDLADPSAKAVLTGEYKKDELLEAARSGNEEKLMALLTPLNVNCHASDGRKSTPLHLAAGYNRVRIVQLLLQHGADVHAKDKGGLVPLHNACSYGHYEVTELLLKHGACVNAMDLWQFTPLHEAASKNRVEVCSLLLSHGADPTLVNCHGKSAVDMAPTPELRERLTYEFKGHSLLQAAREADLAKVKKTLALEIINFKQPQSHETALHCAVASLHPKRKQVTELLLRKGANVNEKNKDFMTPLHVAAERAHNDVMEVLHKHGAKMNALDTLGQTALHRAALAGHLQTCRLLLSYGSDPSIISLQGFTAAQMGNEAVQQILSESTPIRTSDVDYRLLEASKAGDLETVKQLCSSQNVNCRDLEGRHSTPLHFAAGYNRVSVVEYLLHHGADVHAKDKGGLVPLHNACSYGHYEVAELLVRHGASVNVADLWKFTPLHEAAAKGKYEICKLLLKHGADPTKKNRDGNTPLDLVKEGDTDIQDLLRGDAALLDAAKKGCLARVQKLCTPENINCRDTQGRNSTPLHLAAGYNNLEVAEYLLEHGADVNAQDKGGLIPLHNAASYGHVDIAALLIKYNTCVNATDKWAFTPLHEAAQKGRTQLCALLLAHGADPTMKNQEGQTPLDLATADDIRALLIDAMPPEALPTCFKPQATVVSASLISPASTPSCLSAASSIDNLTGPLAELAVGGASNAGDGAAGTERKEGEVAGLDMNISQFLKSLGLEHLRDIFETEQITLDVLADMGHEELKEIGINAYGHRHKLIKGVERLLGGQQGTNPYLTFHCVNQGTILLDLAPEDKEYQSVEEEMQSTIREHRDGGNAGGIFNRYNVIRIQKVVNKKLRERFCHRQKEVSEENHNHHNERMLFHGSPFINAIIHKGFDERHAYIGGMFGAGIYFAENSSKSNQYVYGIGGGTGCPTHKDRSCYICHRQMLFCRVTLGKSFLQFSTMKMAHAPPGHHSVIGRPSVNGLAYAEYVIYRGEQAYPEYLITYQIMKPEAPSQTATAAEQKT
Assay: Modified TNKS1 Assay 2 (auto-parsylation, [3H]-NAD+ SPA)
Format: biochemical
Conditions: 6 nM TNKS1, 96 well
Protocol: The potency of selected compounds according to the invention was assessed applying an modified in vitro inhibition assay. Here, the TNKS1 catalyzed NAD^+-dependent ribosylation of the enzyme itself (auto-parsylation) was detected using [^3H]-NAD^+ as substrate and applying the scintillation proximity assay (SPA) method to detect tritium-labeled, parsylated TNKS1. The intensity of the readout signal is proportional to the incorporated [^3H]-NAD^+. Inhibition of TNKS1 leads to a decreased incorporation of [^3H]-NAD^+ and consequently to a lower readout signal intensity. The concentration of a test compound which inhibits the enzyme activity by 50% (corresponds to half of the normed readout signal intensity) is reported as IC50.
The assay was conducted in a 96 well MTP format with the identical TNKS1 enzyme sample and NAD^+ sample as in the histone ribosylation assay with the following modifications: TNKS1 enzyme sample was diluted with a modified assay buffer (50 mM MES pH 7.0, 1 mM DTT, 0.01% Triton X-100) to a final concentration of 6 nM TNKS1 and 10×NAD^+ solution was diluted with the modified assay buffer (s. above) to a final 0.445×NAD^+ solution doped with 100 Bq/ul [^3H]-NAD^+[Catalog #NET443H050UC, Perkin Elmer, Waltham, Mass., USA]. Substrate solution (10 ul) was incubated with different test compound concentrations (2.5 ul in 10% DMSO in modified assay buffer) or control (2.5 ul 10% DMSO in modified assay buffer only) and enzyme (10 ul) over night at room temperature. Incorporated tritium was measured after addition of 50 ul SPA beads (1 mg/ml) [Catalog #RPNQ0095 20 mg/ml, Perkin Elmer, Waltham, Mass., USA; diluted 1:10 with Dulbecco's phosphate buffered saline, PBS Catalog #D8537, Sigma-Aldrich, Steinheim, Germany] and detection of the photon emission with a beta count plate reader [Wallac MicroBeta®, Perkin Elmer, Waltham, Mass., USA].

Work on CC(C)CNC(=O)c1[nH]cnc1C(=O)Nc1ccc(NC(=O)c2ccc(F)cc2Cl)cc1 [Example 147, N^4-{4-[(2-chloro-4-fluorobenzoyl)amino]phenyl}-N^5-isobutyl-1H-imidazole-4,5-dicarboxamide] yielded an IC50 of 110 nM.
In the case of CC(C)(C)CNC(=O)c1[nH]cnc1C(=O)Nc1ccc(NC(=O)c2ccccc2Cl)cc1 [Example 148, N^4-{4-[(2-chlorobenzoyl)amino]phenyl}-N^5-(2,2-dimethylpropyl)-1H-imidazole-4,5-dicarboxamide], the IC50 is reported as 1300 nM.
CC1CCN(CC(C)(C)NC(=O)c2[nH]cnc2C(=O)Nc2ccc(NC(=O)c3ccc(F)cc3Cl)cc2)CC1 [Example 155, N^4-{4-[(2-chloro-4-fluorobenzoyl)amino]phenyl}-N^5-[2-methyl-1-(4-methylpiperidin-1-yl)propan-2-yl]-1H-imidazole-4,5-dicarboxamide] was tested, and the IC50 was 60 nM.
O=C(Nc1ccc(NC(=O)c2nc[nH]c2C(=O)NC(CO)CO)cc1)c1ccccc1Cl [Example 157, N^4-{4-[(2-chlorobenzoyl)amino]phenyl}-N^5-(1,3-dihydroxypropan-2-yl)-1H-imidazole-4,5-dicarboxamide] showed an IC50 of 1200 nM.
With CN1CCN(CCNC(=O)c2[nH]cnc2C(=O)Nc2ccc(NC(=O)c3ccccc3Cl)cc2)CC1 [Example 160, N^4-{4-[(2-chlorobenzoyl)amino]phenyl}-N^5-[2-(4-methylpiperazin-1-yl)ethyl]-1H-imidazole-4,5-dicarboxamide] the IC50 was 80 nM.
Molecule CC1CCN(CCNC(=O)c2[nH]cnc2C(=O)Nc2ccc(NC(=O)c3ccc(F)cc3)cc2)CC1 [Example 164, N^4-{4-[(4-fluorobenzoyl)amino]phenyl}-N^5-[2-(4-methylpiperidin-1-yl)ethyl]-1H-imidazole-4,5-dicarboxamide] has an IC50 of 40 nM.
In the case of CC(C)(CNC(=O)c1[nH]cnc1C(=O)Nc1ccc(NC(=O)c2ccccc2Cl)cc1)N1CCCCC1 [Example 165, N^4-{4-[(2-chlorobenzoyl)amino]phenyl}-N^5-[2-methyl-2-(piperidin-1-yl)propyl]-1H-imidazole-4,5-dicarboxamide], the IC50 is reported as 30 nM.
In the case of O=C(Nc1ccc(NC(=O)c2nc[nH]c2C(=O)NCCF)cc1)c1ccccc1Cl [Example 166, N^4-{4-[(2-chlorobenzoyl)amino]phenyl}-N^5-(2-fluoroethyl)-1H-imidazole-4,5-dicarboxamide], the IC50 is reported as 240 nM.
Molecule CC1CCCCN1CCNC(=O)c1[nH]cnc1C(=O)Nc1ccc(NC(=O)c2ccc(F)cc2)cc1 (centres unmarked) [Example 169, N^4-{4-[(4-fluorobenzoyl)amino]phenyl}-N^5-[2-(2-methylpiperidin-1-yl)ethyl]-1H-imidazole-4,5-dicarboxamide] has an IC50 of 90 nM.
For CC(C)(CN1CCCCC1)NC(=O)c1[nH]cnc1C(=O)Nc1ccc(NC(=O)c2ccccc2Cl)cc1 [Example 171, N^4-{4-[(2-chlorobenzoyl)amino]phenyl}-N^5-[2-methyl-1-(piperidin-1-yl)propan-2-yl]-1H-imidazole-4,5-dicarboxamide], the IC50 was 200 nM.
O=C(Nc1ccc(NC(=O)c2nc[nH]c2C(=O)NCCF)cc1)c1ccc(F)cc1Cl [Example 173, N^4-{4-[(2-chloro-4-fluorobenzoyl)amino]phenyl}-N^5-(2-fluoroethyl)-1H-imidazole-4,5-dicarboxamide] showed an IC50 of 30 nM.
O=C(Nc1ccc(NC(=O)c2nc[nH]c2C(=O)NCCN2CCCC2)cc1)c1ccc(F)cc1 [Example 176, N^4-{4-[(4-fluorobenzoyl)amino]phenyl}-N^5-[2-(pyrrolidin-1-yl)ethyl]-1H-imidazole-4,5-dicarboxamide] showed an IC50 of 50 nM.
With CC(C)(CN1CCOCC1)NC(=O)c1[nH]cnc1C(=O)Nc1ccc(NC(=O)c2ccc(F)cc2)cc1 [Example 180, N^4-{4-[(4-fluorobenzoyl)amino]phenyl}-N^5-[2-methyl-1-(morpholin-4-yl)propan-2-yl]-1H-imidazole-4,5-dicarboxamide] the IC50 was 4000 nM.
With CC(CNC(=O)c1[nH]cnc1C(=O)Nc1ccc(NC(=O)c2ccccc2Cl)cc1)N1CCCCC1 (centres unmarked) [Example 182, N^4-{4-[(2-chlorobenzoyl)amino]phenyl}-N^5-[2-(piperidin-1-yl)propyl]-1H-imidazole-4,5-dicarboxamide] the IC50 was 10 nM.
CC(C)(CN1CCCCC1)NC(=O)c1[nH]cnc1C(=O)Nc1ccc(NC(=O)c2ccc(F)cc2Cl)cc1 [Example 184, N^4-{4-[(2-chloro-4-fluorobenzoyl)amino]phenyl}-N^5-[2-methyl-1-(piperidin-1-yl)propan-2-yl]-1H-imidazole-4,5-dicarboxamide] was tested, and the IC50 was 30 nM.
Molecule CN1CCN(C(C)(C)CNC(=O)c2[nH]cnc2C(=O)Nc2ccc(NC(=O)c3ccc(F)cc3Cl)cc2)CC1 [Example 187, N^4-{4-[(2-chloro-4-fluorobenzoyl)amino]phenyl}-N^5-[2-methyl-2-(4-methylpiperazin-1-yl)propyl]-1H-imidazole-4,5-dicarboxamide] has an IC50 of 50 nM.
Work on O=C(Nc1ccc(NC(=O)c2nc[nH]c2C(=O)NCCCCN2CCCCC2)cc1)c1ccccc1Cl [Example 189, N^4-{4-[(2-chlorobenzoyl)amino]phenyl}-N^5-[4-(piperidin-1-yl)butyl]-1H-imidazole-4,5-dicarboxamide] yielded an IC50 of 220 nM.
For O=C(Nc1ccc(NC(=O)c2nc[nH]c2C(=O)NCCN2CCC2)cc1)c1ccc(F)cc1 [Example 199, N^5-[2-(azetidin-1-yl)ethyl]-N^4-{4-[(4-fluorobenzoyl)amino]phenyl}-1H-imidazole-4,5-dicarboxamide], the IC50 was 60 nM.
For O=C(Nc1ccc(NC(=O)c2nc[nH]c2C(=O)NCCCN2CCOCC2)cc1)c1ccccc1Cl [Example 200, N^4-{4-[(2-chlorobenzoyl)amino]phenyl}-N^5-[3-(morpholin-4-yl)propyl]-1H-imidazole-4,5-dicarboxamide], the IC50 was 350 nM.
Molecule O=C(Nc1ccc(NC(=O)c2nc[nH]c2C(=O)NCCCN2CCOCC2)cc1)c1ccc(F)cc1 [Example 206, N^4-{4-[(4-fluorobenzoyl)amino]phenyl}-N^5-[3-(morpholin-4-yl)propyl]-1H-imidazole-4,5-dicarboxamide] has an IC50 of 4100 nM.
For CC(C)(CN1CCOCC1)NC(=O)c1[nH]cnc1C(=O)Nc1ccc(NC(=O)c2ccc(F)cc2Cl)cc1 [Example 207, N^4-{4-[(2-chloro-4-fluorobenzoyl)amino]phenyl}-N^5-[2-methyl-1-(morpholin-4-yl)propan-2-yl]-1H-imidazole-4,5-dicarboxamide], the IC50 was 110 nM.
Molecule CC1CCCN(CCNC(=O)c2[nH]cnc2C(=O)Nc2ccc(NC(=O)c3ccc(F)cc3Cl)cc2)C1 (centres unmarked) [Example 208, N^4-{4-[(2-chloro-4-fluorobenzoyl)amino]phenyl}-N^5-[2-(3-methylpiperidin-1-yl)ethyl]-1H-imidazole-4,5-dicarboxamide] has an IC50 of 3 nM.
With CC(C)(CNC(=O)c1[nH]cnc1C(=O)Nc1ccc(NC(=O)c2ccc(F)cc2)cc1)N1CCCCC1 [Example 209, N^4-{4-[(4-fluorobenzoyl)amino]phenyl}-N^5-[2-methyl-2-(piperidin-1-yl)propyl]-1H-imidazole-4,5-dicarboxamide] the IC50 was 400 nM.
